Patent US11198695B2, “Fused ring derivative having MGAT-2 inhibitory activity” (Shionogi & Co., Ltd., priority 2017, dated 2021)

Target: recombinant human MGAT2 (Homo sapiens (Human), UniProt Q3SYC2)
Test: Measurement of human MGAT2 inhibitory activity
Format: biochemical
Conditions: read-out: IC50 (concentration exhibiting 50% enzyme inhibition), Table 53
Outline: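 RapidFire ESI-MS read-out of the diolein/diolein-d5 peak ratio gave % inhibition, with no-enzyme and full-enzyme wells as 100% and 0%. Reactions ran 1 h at room temperature at pH 7.4 (phosphate, 2 mmol/L DTT), using Flag-tagged human MGAT2 membranes from Sf9 cells and a substrate solution of 30 μmol/L 2-oleoylglycerol and 10 μmol/L oleoyl-CoA.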

Chain of recombinant human MGAT2 (Q3SYC2 whole entry): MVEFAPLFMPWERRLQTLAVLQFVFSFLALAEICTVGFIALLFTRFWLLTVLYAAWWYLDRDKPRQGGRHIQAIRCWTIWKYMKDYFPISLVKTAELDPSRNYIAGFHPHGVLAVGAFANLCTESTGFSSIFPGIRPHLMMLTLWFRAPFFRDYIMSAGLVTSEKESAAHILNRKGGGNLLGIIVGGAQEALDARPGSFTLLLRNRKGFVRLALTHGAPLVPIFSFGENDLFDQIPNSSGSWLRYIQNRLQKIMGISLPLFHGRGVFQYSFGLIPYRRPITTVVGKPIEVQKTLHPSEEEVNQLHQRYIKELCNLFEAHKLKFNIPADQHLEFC

Row | IC50 [µM] | SMILES
1 | 0.032 | CS(=O)(=O)CC(=O)Nc1c2c(nn1CCn1cccn1)C[C@@]1(CCc3cc(OCC(F)(F)F)ccc31)NC2=O [II-22]
2 | 0.018 | CS(=O)(=O)CC(=O)Nc1c2c(nn1CCc1ccc(F)cc1)C[C@@]1(CCc3cc(OCC(F)(F)F)ccc31)NC2=O [II-23]
3 | 0.032 | CS(=O)(=O)CC(=O)Nc1c2c(nn1CCOCC(F)F)C[C@]1(CCOc3cc(OCC(F)(F)F)ccc31)NC2=O [II-24]
4 | 0.007 | CS(=O)(=O)CC(=O)Nc1c2c(nn1CCCCC(F)(F)F)C[C@]1(CCOc3cc(OCC(F)(F)F)ccc31)NC2=O [II-25]
5 | 0.0095 | COCCCn1nc2c(c1NC(=O)CS(C)(=O)=O)C(=O)N[C@@]1(CCOc3cc(OCC(F)(F)F)ccc31)C2 [II-26]
6 | 0.021 | CS(=O)(=O)CC(=O)Nc1c2c(nn1CCn1cccn1)C[C@]1(CCOc3cc(OCC(F)(F)F)ccc31)NC2=O [II-27]
7 | 0.0087 | CS(=O)(=O)CC(=O)Nc1c2c(nn1CCc1ccc(F)cc1)C[C@]1(CCOc3cc(OCC(F)(F)F)ccc31)NC2=O [II-28]
8 | 0.22 | CS(=O)(=O)CC(=O)Nc1c2c(nn1-c1ccc(C#N)cn1)CC1(CN(C(=O)c3ccc(C(F)(F)F)cc3)C1)NC2=O [II-29]
9 | 0.0087 | CS(=O)(=O)CC(=O)Nc1c2c(nn1-c1ccc(C#N)cn1)C[C@]1(CCc3cc(Br)ccc31)NC2=O [II-30]
10 | 0.017 | CS(=O)(=O)CC(=O)Nc1c2c(nn1CCC1CC1)C[C@@]1(CCc3cc(NC4CC(F)(F)C4)ccc31)NC2=O [II-32]
11 | 0.0033 | CS(=O)(=O)CC(=O)Nc1c2c(nn1CCC1CC1)C[C@@]1(CCc3cc(N4CC(c5ccccc5)C4)ccc31)NC2=O [II-33]
12 | 0.041 | CS(=O)(=O)CC(=O)Nc1c2c(nn1CCC1CC1)C[C@@]1(CCc3cc(N4CC(F)C4)ccc31)NC2=O [II-34]
13 | 0.048 | CS(=O)(=O)CC(=O)Nc1c2c(nn1CCC1CC1)C[C@@]1(CCc3cc(N4CC(n5cccn5)C4)ccc31)NC2=O [II-35]
14 | 0.053 | CS(=O)(=O)CC(=O)Nc1c2c(nn1CCC1CC1)C[C@@]1(CCc3cc(N4CC5(CCOCC5)C4)ccc31)NC2=O [II-36]
15 | 0.012 | CC1(C)CN(c2ccc3c(c2)CC[C@@]32Cc3nn(CCC4CC4)c(NC(=O)CS(C)(=O)=O)c3C(=O)N2)C1 [II-37]
16 | 0.03 | CSCC(=O)Nc1c2c(nn1CCC1CC1)C[C@]1(CCc3cc(OCC(F)(F)F)ccc31)NC2=O [II-38]
17 | 0.042 | C[S+]([O-])CC(=O)Nc1c2c(nn1CCC1CC1)C[C@]1(CCc3cc(OCC(F)(F)F)ccc31)NC2=O (stereo partly drawn) [II-39]
18 | 0.022 | CS(=O)(=O)CC(=O)Nc1c2c(nn1CCC1CC1)C[C@@]1(CCc3cc(N4CC(C(F)F)C4)ccc31)NC2=O [II-40]
19 | 0.04 | CC(C)OC1CN(c2ccc3c(c2)CC[C@@]32Cc3nn(CCC4CC4)c(NC(=O)CS(C)(=O)=O)c3C(=O)N2)C1 [II-41]
20 | 0.046 | CCOC1CN(c2ccc3c(c2)CC[C@@]32Cc3nn(CCC4CC4)c(NC(=O)CS(C)(=O)=O)c3C(=O)N2)C1 [II-42]
21 | 0.003 | CS(=O)(=O)CC(=O)Nc1c2c(nn1CCC1CC1)C[C@@]1(CCc3cc(N4CC(Oc5ccccc5)C4)ccc31)NC2=O [II-43]
22 | 0.051 | COC1(C)CN(c2ccc3c(c2)CC[C@@]32Cc3nn(CCC4CC4)c(NC(=O)CS(C)(=O)=O)c3C(=O)N2)C1 [II-44]

Row | IC50 [µM] | SMILES
23 | 0.098 | COC(=O)CC1CN(c2ccc3c(c2)CC[C@@]32Cc3nn(CCC4CC4)c(NC(=O)CS(C)(=O)=O)c3C(=O)N2)C1 [II-45]
24 | 0.2 | CS(=O)(=O)CC(=O)Nc1c2c(nn1CCC1CC1)C[C@@]1(CCc3cc(N4CC5(COC5)C4)ccc31)NC2=O [II-50]
25 | 0.44 | CC(=O)Nc1c2c(nn1-c1ccc(C#N)cn1)C[C@@]1(CCc3cc(OCC(F)(F)F)ccc31)NC2=O [II-51]
26 | 0.037 | CS(=O)(=O)CC(=O)Nc1c2c(nn1-c1ccc(C#N)cn1)C[C@]1(CCc3ccccc31)NC2=O [II-52]
27 | 0.014 | CS(=O)(=O)CC(=O)Nc1c2c(nn1-c1ccc(C#N)cn1)CC1(CN(c3ccc(C(F)(F)F)cc3F)C1)NC2=O [II-53]
28 | 0.044 | CS(=O)(=O)CC(=O)Nc1c2c(nn1-c1ccc(C#N)cn1)C[C@]1(CCc3cc(N4CC(F)C4)ccc31)NC2=O [II-55]
29 | 0.047 | COCCCn1nc2c(c1-c1nn[nH]n1)C(=O)N[C@@]1(CCc3cc(OCCCC(F)(F)F)ccc31)C2 [II-56]
30 | 0.066 | COC1CN(c2ccc3c(c2)CC[C@]32Cc3nn(-c4ccc(C#N)cn4)c(NC(=O)CS(C)(=O)=O)c3C(=O)N2)C1 [II-57]
31 | 0.016 | CS(=O)(=O)CC(=O)Nc1c2c(nn1CCC1CC1)CC1(CN(c3ccc(C(F)(F)F)cc3)C1)NC2=O [II-58]
32 | 0.033 | N#Cc1ccc(-n2nc3c(c2NC(=O)c2cocn2)C(=O)N[C@@]2(CCc4cc(OCC(F)(F)F)ccc42)C3)nc1 [II-59]
33 | 0.093 | O=C(COC(F)(F)F)Nc1c2c(nn1CCC1CC1)C[C@]1(CCc3cc(OCC(F)(F)F)ccc31)NC2=O [II-60]
34 | 0.0167 | Cn1c2c(c(NC(=O)CS(C)(=O)=O)c1-c1ccccc1)C(=O)N[C@@]1(CCc3cc(OCC(F)(F)F)ccc31)C2 [II-61]
35 | 0.0153 | N#Cc1ccc(-n2nc3c(c2C(=O)NCC2(CO)COC2)C(=O)N[C@@]2(CCc4cc(OCC(F)(F)F)ccc42)C3)nc1 [II-62]
36 | 0.3 | CC(C)(O)C1CN(c2ccc3c(c2)CC[C@@]32Cc3nn(CCC4CC4)c(NC(=O)CS(C)(=O)=O)c3C(=O)N2)C1 [II-63]
37 | 0.0029 | CS(=O)(=O)CC(=O)Nc1c2c(nn1CCCOC(F)(F)F)C[C@]1(CCOc3cc(OCC(F)(F)F)ccc31)NC2=O [II-64]
38 | 0.0019 | CS(=O)(=O)CC(=O)Nc1c2c(nn1CCCC(F)(F)F)C[C@]1(CCOc3cc(OCC(F)(F)F)ccc31)NC2=O [II-65]
39 | 0.0025 | CS(=O)(=O)CC(=O)Nc1c2c(nn1CCC1CC1)C[C@@]1(CCc3cc(CCC(F)(F)F)ccc31)NC2=O [II-66]
40 | 0.00264 | CS(=O)(=O)CC(=O)Nc1c2c(nn1-c1ccc(F)c(F)c1)C[C@]1(CCOc3cc(OCC(F)(F)F)ccc31)NC2=O [II-67]
41 | 0.42 | COc1nccc(NCc2c3c(nn2CCC2CC2)C[C@@]2(CCc4cc(OCC(F)(F)F)ccc42)NC3=O)n1 [II-68]
42 | 0.0439 | O=C1N[C@]2(CCc3cc(OCC(F)(F)F)ccc32)Cc2nn(CCC3CC3)c(CNc3ccnc(O)n3)c21 [II-69]
43 | 0.00394 | CNS(=O)(=O)CC(=O)Nc1c2c(nn1-c1ccc(C#N)cn1)C[C@@]1(CCc3cc(OCC(F)(F)F)ccc31)NC2=O [II-70]
44 | 0.0126 | Cc1nocc1-c1ccc2c(c1)CC[C@@]21Cc2nn(CCC3CC3)c(NC(=O)CS(C)(=O)=O)c2C(=O)N1 [II-71]

Row | IC50 [µM] | SMILES
45 | 0.00369 | N#Cc1ccc(-n2nc3c(c2NC(=O)C2CS(=O)(=O)C2)C(=O)N[C@@]2(CCc4cc(OCC(F)(F)F)ccc42)C3)nc1 [II-72]
46 | 0.0023 | CS(=O)(=O)CC(=O)Nc1c2c(nn1-c1ccc(C#N)cn1)CC1(CN(c3c(F)cc(C(F)(F)F)cc3F)C1)NC2=O [II-74]
47 | 0.00369 | CS(=O)(=O)CC(=O)Nc1c2c(nn1-c1ccc(C#N)cn1)C[C@]1(CCc3cc(Cl)ccc31)NC2=O [II-75]
48 | 0.006 | CS(=O)(=O)CC(=O)Nc1c2c(nn1CCC1CC1)C[C@@]1(CCc3cc(C4CC4)ccc31)NC2=O [II-76]
49 | 0.0055 | CS(=O)(=O)CC(=O)Nc1c2c(nn1CCC1CC1)C[C@@]1(CCc3cc(OCC(F)F)ccc31)NC2=O [II-77]
50 | 0.045 | CS(=O)(=O)CC(=O)Nc1c2c(nn1-c1ccc(C#N)cn1)CC1(CN(c3nc(C(F)(F)F)cs3)C1)NC2=O [II-78]
51 | 0.11 | CS(=O)(=O)CC(=O)Nc1c2c(nn1-c1ccc(C#N)cn1)CC1(CN(c3nc(C(F)(F)F)co3)C1)NC2=O [II-79]
52 | 0.0091 | CC(C)c1ccc(N2CC3(Cc4nn(-c5ccc(C#N)cn5)c(NC(=O)CS(C)(=O)=O)c4C(=O)N3)C2)cc1 [II-80]
53 | 0.0466 | O=C1N[C@@]2(CCc3cc(OCC(F)(F)F)ccc32)Cc2nn(CCC3CC3)c(NC(=O)[C@H]3CCCS3(=O)=O)c21 [II-81]
54 | 0.00249 | CS(=O)(=O)CC(=O)Nc1c2c(nn1CCC1CC1)C[C@@]1(CCc3cc(OCC4CC(F)(F)C4)ccc31)NC2=O [II-82]
55 | 0.00199 | CS(=O)(=O)CC(=O)Nc1c2c(nn1CCC1CC1)C[C@@]1(CCc3cc(-c4cnn(C(F)(F)F)c4)ccc31)NC2=O [II-83]
56 | 0.0455 | CS(=O)(=O)CC(=O)Nc1c2c(nn1CCCC(F)(F)F)C[C@@]1(NC2=O)c2ccc(OCC(F)(F)F)cc2CC1(F)F [II-85]
57 | 0.00337 | Cc1ccc(-n2nc3c(c2NC(=O)CS(C)(=O)=O)C(=O)N[C@@]2(C3)c3ccc(OCC(F)(F)F)cc3CC2(F)F)nc1 [II-86]
58 | 0.00263 | CS(=O)(=O)CC(=O)Nc1c2c(nn1-c1ccc(C#N)cn1)C[C@]1(NC2=O)c2ccc(OCC(F)(F)F)cc2CC1(F)F [II-87]
59 | 0.00367 | CS(=O)(=O)CC(=O)Nc1c2c(nn1-c1ccc(F)c(F)c1)C[C@]1(NC2=O)c2ccc(OCC(F)(F)F)cc2CC1(F)F [II-88]
60 | 0.0108 | CS(=O)(=O)CC(=O)Nc1c2c(nn1-c1ccc(C#N)cn1)CC1(CN(c3cccc(C(F)(F)F)c3)C1)NC2=O [II-89]
61 | 0.04 | CS(=O)(=O)CC(=O)Nc1c2c(nn1-c1ccc(C#N)cn1)CC1(CN(c3ccc(C(F)(F)F)nc3)C1)NC2=O [II-90]
62 | 0.00279 | N#Cc1ccc(-n2nc3c(c2NC(=O)C2CCS(=O)(=O)C2)C(=O)N[C@@]2(CCc4cc(OCC(F)(F)F)ccc42)C3)nc1 (stereo partly drawn) [II-91]
63 | 0.0443 | CS(=O)(=O)CC(=O)Nc1c2c(nn1CCC1CC1)C[C@@]1(NC2=O)c2ccc(OCC(F)(F)F)cc2CC1(F)F [II-92]
64 | 0.00429 | C[C@@]1(c2ccc(OCC(F)(F)F)cc2F)Cc2nn(-c3ccc(C#N)cn3)c(NC(=O)CS(C)(=O)=O)c2C(=O)N1 [II-95]
65 | 0.00888 | C[C@@]1(c2ccc(OCC(F)(F)F)cc2F)Cc2nn(-c3ccc(F)c(F)c3)c(NC(=O)CS(C)(=O)=O)c2C(=O)N1 [II-96]
66 | 0.00397 | CS(=O)(=O)CC(=O)Nc1c2c(nn1CCCOC(F)(F)F)C[C@@]1(NC2=O)c2ccc(OCC(F)(F)F)cc2CC1(F)F [II-97]
